Tests used:
HL-60 cells = test: DNA fragmentation in HL-60 cells after PDT; format: cell-based
[1] = tested on: mitogenic pathway kinase p70 S6K; test: PDT effect on mitogenic pathway kinase in HL-60 cells; format: cell-based; conditions: sublethal concentrations
From the text: (§1) The conditions of the study set forth in Example 11 were repeated using HL-60 cells as the target and comparing the effects of A-EA6 and BPD-MA on cytotoxicity, on the mitogenic pathway kinase p70 S6K, and on the stress pathway kinases c-jun and HSP27.

[2] = tested on: antigen-induced ear swelling; test: Immunomodulatory activity, whole-body PDT, suppression of ear swelling; format: in vivo, mice; conditions: red LED light 15 J/cm^2
Description: Flanks of control and test mice were painted with the antigen DMFB and their ears were challenged 5 days later by pasting with the same compound. […] The percent suppression of ear swelling was calculated in comparison to controls.

[3] = tested on: stress pathway kinases c-jun and HSP27; test: PDT effect on stress pathway kinases in HL-60 cells; format: cell-based; conditions: sublethal concentrations
From the text: as §1

caspases = test: Caspase activation in HL-60 cells after PDT; format: cell-based
Description: The effect on caspase activation in HL-60 cells was also measured. […] This effect is desirable as it is associated with apoptosis. Using apoptosis to remove unwanted cells causes the least effect on surrounding normal cells and tissues.

MHC I receptors = test: Surface expression of MHC I receptors on dendritic cells after PDT, flow cytometry; format: cell-based; conditions: 690 nm 5 J/cm^2, 3 hours post-treatment
Description: The cells were treated with 690 nm light at 5 J/cm^2 and then labeled with the appropriate antibody 3 hours post-treatment and assessed by flow cytometry. The results were measured as the percent of the mean channel fluorescence intensity for light-treated control cells.

M1 tumors = test: In vivo photodynamic therapy in mice harboring M1 tumors, tumor-free on day 7; conditions: 1 mg/kg IV, 50 J/cm^2 690 nm
From the text: This was followed by whole body irradiation with 50 J/cm^2 of 690 nm laser light at various times after administration of the drug.

L1210 cells = test: In vitro photocytotoxicity on L1210 cells, 690 nm light 5 J/cm^2, MTT; format: cell-based, murine; conditions: 690 nm 5 J/cm^2
Description: (§2) Either L1210 cells or the dendritic cell line D2SC/1 was incubated for one hour at 37° C. with either A-EA6 or BPD-MA. After removal of excess drug, the cells were exposed to 690 nm light at 5 J/cm^2 light. Cell survival was determined 18–24 hours later using the MTT colorimetric assay described in Example 5. Percent cells killed was calculated by reference to cells exposed to light only. […] The open circles represent A-EA6 plus serum; the closed circles represent BPD-MA plus serum; open squares represent A-EA6 in the absence of serum; and closed squares represent BPD-MA in the absence of serum.

[4] = tested on: dendritic cell line D2SC/1; test: In vitro photocytotoxicity on dendritic cell line D2SC/1, 690 nm light 5 J/cm^2, MTT; format: cell-based; conditions: dendritic cells, 5% fetal calf serum, 690 nm 5 J/cm^2
Description: as §2

## C=Cc1c(C)c2cc3nc(cc4[nH]c(cc5nc(cc1[nH]2)C(C)=C5CCC(=O)OCCO)c(CCC(=O)OCCO)c4C)C1(C)C3=CC=C(C(=O)OC)C1C(=O)OC (stereo not shown) [A-EA6]
HL-60 cells
  percent DNA fragmentation compared with BPD-MA: effective at lower concentrations than BPD-MA
[1]
  inhibition of mitogenic pathway kinases compared with BPD-MA: stronger inhibition of the mitogenic pathway kinases
[2]; 0.3 mg/kg IV
  Percent suppression of ear swelling: 59%
[2]; 1.0 mg/kg IV
  Percent suppression of ear swelling: 68%
[3]
  activation of stress pathway kinases compared with BPD-MA: stronger activation of the stress pathway kinases
caspases
  caspase activation compared with BPD-MA: stronger activation of caspases
MHC I receptors; 1 ng/ml
  reduction of MHC I mean channel fluorescence vs light-treated control cells: approximately 25%
MHC I receptors; 2.5 ng/ml
  reduction of MHC I mean channel fluorescence vs light-treated control cells: approximately 25%
M1 tumors; irradiation 15 min post i.v.
  Day 7 tumor-free animals: 2/2
M1 tumors; irradiation 30 min post i.v.
  Day 7 tumor-free animals: 6/6
L1210 cells; absence of serum
  cytotoxicity compared with BPD-MA: comparable cytotoxicity to BPD-MA
L1210 cells; presence of serum
  cytotoxicity compared with BPD-MA: markedly more toxic
[4]
  LD50: 2.7 ng/mL
